Like-named read-outs stand apart in the source and are kept apart here.

This passage reports pest or weed control and chromatographic logP results from US8536202B2, “Triazole-substituted anthranilamides as pesticides” (Bayer Cropscience AG, priority 2010, dated 2013).

Series [1] has as its system larvae of the mustard beetle (Phaedon cochleariae). Put plainly: Phaedon test (PHAECO spray treatment). Type of series: in vivo. To be noted: 168 h, read-out: activity in %. How it is done: (§1) Solvents: 78.0 parts by weight of acetone • • 1.5 parts by weight of dimethylformamide
(§2) Emulsifier: 0.5 part by weight of alkylaryl polyglycol ether
(§3) An appropriate preparation of active compound is prepared by mixing 1 part by weight of active compound with the stated amounts of solvent and emulsifier and diluting the concentrate with emulsifier-containing water to the desired concentration.
After 7 days, the activity in % is ascertained. Here, 100% means that all of the beetle larvae have been killed; 0% means that no beetle larvae have been killed.

The test system of series [2] is caterpillars of the armyworm (Spodoptera frugiperda). In words: Spodoptera frugiperda test (SPODFR spray treatment). The class given is in vivo. The settings on record: 168 h, read-out: activity in %. How it is done: as §1, §2, §3
Leaf discs of maize (Zea mays) are sprayed with a preparation of active compound at the desired concentration and, after drying, are populated with caterpillars of the armyworm (Spodoptera frugiperda).
After 7 days, the activity in % is ascertained. Here, 100% means that all of the caterpillars have been killed; 0% means that no caterpillar has been killed.

Series [3] in a line: log P determination by HPLC on reversed-phase columns (EEC Directive 79/831 Annex V.A8). Type of series: physicochemical. To be noted: pH 2.7. How it is done:
Determination by LC-MS in the acidic range takes place at a pH of 2.7 using 0.1% aqueous formic acid and acetonitrile (containing 0.1% formic acid) as eluents, with a linear gradient from 10% acetonitrile to 95% acetonitrile.
Calibration was carried out using unbranched alkan-2-ones (having 3 to 16 carbon atoms) with known log P values (the log P values are determined from the retention times by linear interpolation between two successive alkanones).

Where [4] appears, read: reversed-phase C18 HPLC column, HPLC on reversed-phase columns (C 18), EEC Directive 79/831 Annex V.A8, read-out: logP.
The mark [5] stands for this setting: HPLC on reversed-phase columns (C 18), EEC Directive 79/831 Annex V.A8, read-out: logP.

As to `Cc1cc(Cl)cc(C(=O)NC(C)(C)C)c1NC(=O)c1cc(Cn2ncc(C(F)(C(F)(F)F)C(F)(F)F)n2)nn1-c1ncccc1Cl` [Example 260], the pest or weed control at 100 g/ha in series [1] (100 g/ha, after 7 days) was 100%; in series [2] (100 g/ha, after 7 days), 100%. For the same molecule, the chromatographic logP in series [3] (setting [4]) was 4.64.
`N#CCNC(=O)c1cc(Cl)cc(Cl)c1NC(=O)c1cc(Cn2cc(C(F)(F)F)nn2)nn1-c1ncccc1Cl` [Example 205]: the pest or weed control at 100 g/ha in series [1] (100 g/ha, after 7 days) was found to be 100%; in series [2] (100 g/ha, after 7 days), 100%. In series [3], this molecule came in with a chromatographic logP of 2.63.
For the molecule `CCNC(=O)c1cc(I)cc(C)c1NC(=O)c1cc(Cn2cc(C(F)(F)F)nn2)nn1-c1ncccc1Cl` [Example 209], the pest or weed control at 100 g/ha in series [1] (100 g/ha, after 7 days) turned out to be 100%; in series [2] (100 g/ha, after 7 days) it was 100%. Further, the chromatographic logP in series [3] was 3.04.
In the case of `CNC(=O)c1cc(Cl)cc(C)c1NC(=O)c1cc(Cn2ncc(-c3ccc(Cl)cc3)n2)nn1-c1ncccc1Cl` [Example 25], the pest or weed control at 100 g/ha came to 100% in series [1] (100 g/ha, after 7 days) and 100% in series [2] (100 g/ha, after 7 days). This molecule returned a chromatographic logP in series [3] of 3.62.
`Cc1cc(Cl)cc(C(=O)NC2CC2)c1NC(=O)c1cc(Cn2ncc(C(F)(C(F)(F)F)C(F)(F)F)n2)nn1-c1ncccc1Cl` [Example 264]: the pest or weed control at 100 g/ha in series [1] (100 g/ha, after 7 days) amounted to 100%; in series [2] (100 g/ha, after 7 days), 100%. For the same molecule, the chromatographic logP in series [3] was determined as 4.01.
Regarding `Cc1cc(C#N)cc(C(=O)NC(C)C)c1NC(=O)c1cc(Cn2cc(C(F)(F)F)nn2)nn1-c1ccccc1Cl` [Example 290], the pest or weed control at 100 g/ha was found to be 100% in series [1] (100 g/ha, after 7 days) and 100% in series [2] (100 g/ha, after 7 days). For the same molecule, the chromatographic logP in series [3] (setting [4]) came out at 3.17.
Turning to `CNC(=O)c1cc(C#N)cc(C)c1NC(=O)c1cc(Cn2nnc3c(Cl)c(Cl)c(Cl)cc32)nn1-c1ncccc1Cl` [Example 96], the pest or weed control at 100 g/ha in series [1] (100 g/ha, after 7 days) came to 100%; in series [2] (100 g/ha, after 7 days), 100%. Moreover, the chromatographic logP in series [3] stood at 3.42.
On to `Cc1cc(I)cc(C(=O)NC2CC2)c1NC(=O)c1cc(Cn2cc(C(F)(F)C(F)(F)F)nn2)nn1-c1ncccc1Cl` [Example 310], for which the pest or weed control at 100 g/ha in series [1] (100 g/ha, after 7 days) came out at 100%; in series [2] (100 g/ha, after 7 days), 100%. In series [3], the chromatographic logP turned out to be 3.49.
As to `O=C(NC1CC1)c1cc(Cl)cc(Cl)c1NC(=O)c1cc(Cn2cc(C(F)(C(F)(F)F)C(F)(F)F)nn2)nn1-c1ncccc1Cl` [Example 248], the pest or weed control at 100 g/ha was 100% in series [1] (100 g/ha, after 7 days) and 100% in series [2] (100 g/ha, after 7 days). In series [3], this molecule displayed a chromatographic logP of 3.56.
With `Cc1cc(Cl)cc(C(=O)NC(C)C)c1NC(=O)c1cc(Cn2ncc(C(F)(F)C(F)(F)C(F)(F)F)n2)nn1-c1ncccc1Cl` [Example 378], the pest or weed control at 100 g/ha in series [1] and in series [2] was 100% in each case. Also, the chromatographic logP in series [3] (setting [5]) amounted to 4.27.
For the molecule `CCNC(=O)c1cc(C#N)cc(C)c1NC(=O)c1cc(Cn2nc(C(F)(F)F)c(C(F)(F)F)n2)nn1-c1ncccc1Cl` [Example 397], the pest or weed control at 100 g/ha came to 100% in series [1] (100 g/ha, after 7 days) and 100% in series [2] (100 g/ha, after 7 days). In addition, in series [3], the chromatographic logP turned out to be 3.61.
With `Cc1cc(I)cc(C(=O)NC2CC2)c1NC(=O)c1cc(Cn2nc(C(F)(F)F)c(C(F)(F)F)n2)nn1-c1ncccc1Cl` [Example 390], the pest or weed control at 100 g/ha in series [1] (100 g/ha, after 7 days) turned out to be 100%; in series [2] (100 g/ha, after 7 days) it was 100%. The molecule also displayed a chromatographic logP in series [3] of 4.19.
Consider `Cc1cc(I)cc(C(=O)NC(C)C2CC2)c1NC(=O)c1cc(Cn2ncc(C(F)(F)C(F)(F)C(F)(F)F)n2)nn1-c1ncccc1Cl` (stereo not drawn) [Example 386], for which the pest or weed control at 100 g/ha in series [1] and in series [2] was 100% in each case. Also, the chromatographic logP in series [3] (setting [5]) was 4.82.
For `Cc1cc(I)cc(C(=O)NC(C)C2CC2)c1NC(=O)c1cc(Cn2cc(C(F)(C(F)(F)F)C(F)(F)F)nn2)nn1-c1ncccc1Cl` (stereo not drawn) [Example 234], the pest or weed control at 100 g/ha in series [1] (100 g/ha, after 7 days) was 100%; in series [2] (100 g/ha, after 7 days), 100%. The chromatographic logP in series [3] (setting [4]) came to 4.38.
